In PubChem BioAssay AID1963429 (Molecular Pharmacology Branch, DTP, NCI, 2024):

Test system: 126254-015-R-J1-PDC complex spheroid growth, % test/control
Experiment: Anticancer human tumor 126254-015-R-J1-PDC patient-derived soft tissue sarcoma cell line growth inhibition [Asc]
Conditions: for IC50: curve of first compound; for viability, T/C: stronger effect = lower value
Method in brief: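 Concentration series start at each agent's clinical Cmax, or at 10 microM when none is established, and drop in half-log steps; agents are applied alone or together to complex spheroids built with HUVEC and hMSC.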

[1] = second compound 0.1 µM, first compound 0.00316 µM
[2] = second compound 0.1 µM, first compound 0.01 µM
[3] = second compound 0.1 µM, first compound 0.0316 µM
[4] = second compound 0.1 µM, first compound 0.1 µM
[5] = second compound 0.1 µM, first compound 0.316 µM
[6] = second compound 0.1 µM, first compound 1 µM
[7] = second compound 0.316 µM, first compound 0.00316 µM
[8] = second compound 0.316 µM, first compound 0.01 µM
[9] = second compound 0.316 µM, first compound 0.0316 µM
[10] = second compound 0.316 µM, first compound 0.1 µM
[11] = second compound 0.316 µM, first compound 0.316 µM
[12] = second compound 0.316 µM, first compound 1 µM
[13] = second compound 1 µM, first compound 0.00316 µM
[14] = second compound 1 µM, first compound 0.01 µM
[15] = second compound 1 µM, first compound 0.0316 µM
[16] = second compound 1 µM, first compound 0.1 µM
[17] = second compound 1 µM, first compound 0.316 µM
[18] = second compound 1 µM, first compound 1 µM
[19] = second compound 3.16 µM, first compound 0.00316 µM
[20] = second compound 3.16 µM, first compound 0.01 µM
[21] = second compound 3.16 µM, first compound 0.0316 µM
[22] = second compound 3.16 µM, first compound 0.1 µM
[23] = second compound 3.16 µM, first compound 0.316 µM
[24] = second compound 3.16 µM, first compound 1 µM
[25] = second compound 10 µM, first compound 0.00316 µM
[26] = second compound 10 µM, first compound 0.01 µM
[27] = second compound 10 µM, first compound 0.0316 µM
[28] = second compound 10 µM, first compound 0.1 µM
[29] = second compound 10 µM, first compound 0.316 µM
[30] = second compound 10 µM, first compound 1 µM
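Also: spheroids exposed to compound for seven days.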
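For viability, T/C in this document: 100% = DMSO vehicle control wells.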

| Compound | IC50 (second compound 0.1 µM) [nM] | IC50 (second compound 0.316 µM) [nM] | IC50 (second compound 1 µM) [nM] | IC50 (second compound 3.16 µM) [nM] | IC50 (second compound 10 µM) [nM] | viability, T/C [1] [%] | viability, T/C [2] [%] | viability, T/C [3] [%] | viability, T/C [4] [%] | viability, T/C [5] [%] | viability, T/C [6] [%] | viability, T/C [7] [%] | viability, T/C [9] [%] | viability, T/C [10] [%] | viability, T/C [15] [%] | viability, T/C [16] [%] | viability, T/C [21] [%] | viability, T/C [22] [%] | viability, T/C [27] [%] | viability, T/C [28] [%] | other results |
| --- | --- | --- | --- | --- | --- | --- | --- | --- | --- | --- | --- | --- | --- | --- | --- | --- | --- | --- | --- | --- | --- |
| CCN1CCN(Cc2ccc(Nc3ncc(F)c(-c4cc(F)c5nc(C)n(C(C)C)c5c4)n3)nc2)CC1 + Cc1c(S(C)(=O)=O)c(-c2cc(F)cc(N3CCN(c4ccc(NS(=O)(=O)c5ccc(NC(CCN6CCC(C(=O)OCCCP(=O)(O)O)CC6)CSc6ccccc6)c(S(=O)(=O)C(F)(F)F)c5)cc4)CC3)c2)c(-c2ccc(Cl)cc2)n1C(C)C | > 1000 | > 1000 | > 1000 | > 1000 | > 1000 | 99.3 | 95.5 | 88.4 | 90.1 | 110 | 98.4 | 87.8 | 84.4 | 95.5 | 93.3 | 86.4 | 90.1 | 72.4 | 86.1 | 98 | viability, T/C [8]: 89.1%; viability, T/C [11]: 90.3%; viability, T/C [12]: 87%; viability, T/C [13]: 86.5%; viability, T/C [14]: 81.7%; viability, T/C [17]: 97.9%; viability, T/C [18]: 73.3%; viability, T/C [19]: 96.6%; viability, T/C [20]: 87.7%; viability, T/C [23]: 86.6%; viability, T/C [24]: 87.3%; viability, T/C [25]: 86.5%; viability, T/C [26]: 90.4%; viability, T/C [29]: 87.5%; viability, T/C [30]: 73.8% |
| Cn1ncnc1[C@H]1c2n[nH]c(=O)c3cc(F)cc(c23)N[C@@H]1c1ccc(F)cc1 + Cc1c(S(C)(=O)=O)c(-c2cc(F)cc(N3CCN(c4ccc(NS(=O)(=O)c5ccc(NC(CCN6CCC(C(=O)OCCCP(=O)(O)O)CC6)CSc6ccccc6)c(S(=O)(=O)C(F)(F)F)c5)cc4)CC3)c2)c(-c2ccc(Cl)cc2)n1C(C)C | > 100 | > 100 | > 100 | > 100 | 99.3 | 82.1 | 73.9 | 76.9 | 65.2 |  |  | 71.6 | 69.7 | 58.5 | 64 | 61.6 | 57.5 | 55 | 55.2 | 50 | viability, T/C (second compound 0.1 µM, first compound 0.000316 µM): 90.6%; viability, T/C (second compound 0.1 µM, first compound 0.001 µM): 89.9%; viability, T/C (second compound 0.316 µM, first compound 0.000316 µM): 87.7%; viability, T/C (second compound 0.316 µM, first compound 0.001 µM): 79%; viability, T/C [8]: 69.2%; viability, T/C (second compound 1 µM, first compound 0.000316 µM): 79%; viability, T/C (second compound 1 µM, first compound 0.001 µM): 85.1%; viability, T/C [13]: 78.4%; viability, T/C [14]: 63.9%; viability, T/C (second compound 3.16 µM, first compound 0.000316 µM): 83.4%; viability, T/C (second compound 3.16 µM, first compound 0.001 µM): 68%; viability, T/C [19]: 70.3%; viability, T/C [20]: 61%; viability, T/C (second compound 10 µM, first compound 0.000316 µM): 82%; viability, T/C (second compound 10 µM, first compound 0.001 µM): 72%; viability, T/C [25]: 77.7%; viability, T/C [26]: 68.7% |
| O=C(c1cc(Cc2n[nH]c(=O)c3ccccc23)ccc1F)N1CCN(C(=O)C2CC2)CC1 + Cc1c(S(C)(=O)=O)c(-c2cc(F)cc(N3CCN(c4ccc(NS(=O)(=O)c5ccc(NC(CCN6CCC(C(=O)OCCCP(=O)(O)O)CC6)CSc6ccccc6)c(S(=O)(=O)C(F)(F)F)c5)cc4)CC3)c2)c(-c2ccc(Cl)cc2)n1C(C)C | > 10000 | 9750 | 7040 | 5750 | > 10000 |  |  | 77.8 | 81.8 | 80 | 71.8 |  | 87.3 | 79.3 | 77 | 72.8 | 75 | 68.7 | 75.9 | 80.5 | viability, T/C (second compound 0.1 µM, first compound 3.16 µM): 66.8%; viability, T/C (second compound 0.1 µM, first compound 10 µM): 56.2%; viability, T/C [11]: 80.2%; viability, T/C [12]: 67.6%; viability, T/C (second compound 0.316 µM, first compound 3.16 µM): 73.9%; viability, T/C (second compound 0.316 µM, first compound 10 µM): 47.8%; viability, T/C [17]: 65.7%; viability, T/C [18]: 71.3%; viability, T/C (second compound 1 µM, first compound 3.16 µM): 58.1%; viability, T/C (second compound 1 µM, first compound 10 µM): 45.8%; viability, T/C [23]: 74.5%; viability, T/C [24]: 65.5%; viability, T/C (second compound 3.16 µM, first compound 3.16 µM): 59.2%; viability, T/C (second compound 3.16 µM, first compound 10 µM): 41.8%; viability, T/C [29]: 72.1%; viability, T/C [30]: 70.6%; viability, T/C (second compound 10 µM, first compound 3.16 µM): 60.6%; viability, T/C (second compound 10 µM, first compound 10 µM): 55.3% |
| O=C(c1ccc(F)c(F)c1Nc1ccc(I)cc1F)N1CC(O)([C@@H]2CCCCN2)C1 + Cc1c(S(C)(=O)=O)c(-c2cc(F)cc(N3CCN(c4ccc(NS(=O)(=O)c5ccc(NC(CCN6CCC(C(=O)OCCCP(=O)(O)O)CC6)CSc6ccccc6)c(S(=O)(=O)C(F)(F)F)c5)cc4)CC3)c2)c(-c2ccc(Cl)cc2)n1C(C)C | 644 | 502 | 494 | 420 | 321 | 87.3 | 106 | 106 | 87.7 | 70.7 | 37.6 | 88.5 | 84.7 | 83.4 | 83.9 | 79.3 | 75.5 | 82.5 | 80.2 | 75.3 | viability, T/C [8]: 87.7%; viability, T/C [11]: 60.9%; viability, T/C [12]: 33.6%; viability, T/C [13]: 89.2%; viability, T/C [14]: 93.7%; viability, T/C [17]: 65.5%; viability, T/C [18]: 26.9%; viability, T/C [19]: 88.1%; viability, T/C [20]: 92%; viability, T/C [23]: 55.8%; viability, T/C [24]: 27.6%; viability, T/C [25]: 90.1%; viability, T/C [26]: 98%; viability, T/C [29]: 49.6%; viability, T/C [30]: 25.3% |
